Entries after “also recorded” stand apart in the source; their conditions may differ.
Legend:
cortisol = experiment: Hypoglycemic clamp: plasma cortisol levels; type: in vivo, human; conditions: for Cortisol levels, Change from baseline, Mean (SD) / Cortisol levels, Change from baseline, Median (Min, Max) / Cortisol levels, Observed value, Mean (SD) / Cortisol levels, Observed value, Median (Min, Max): C-peptide undetectable
Protocol: (§1) In order to evaluate the counterregulatory hormone response to hypoglycemia, a hypoglycemic clamp will be performed. The Hypoglycemic Clamp must be performed according to the instructions in the Operations Manual. (Appendix 3)
(§2) The patient should: • Come to the study site following an overnight fast (>10 hours), i.e. the patient may not eat but is permitted to drink water • Not have taken the Remygen and, if applicable, Alprazolam dose in the morning • Not take short acting/direct acting insulin within 6 hours before the investigation. • The patient is allowed to take base-insulin day/night before, but not in the morning before the investigation.
(§3) Patients with CSII (insulin pump) must continue with their basal dose insulin, but not add bolus dose during the last 6 hours before the investigation.
(§4) If a patient has a blood sugar level <4 mmol/L in the morning of the scheduled visit, the patient is allowed to take dextrose tablets and then come to the study site. The patient is allowed to perform the investigation if the blood sugar level is >4 mmol/L.
(§5) In the dose-escalation part of the study, the patient will take study drug 30 min prior to start of the hypoglycemic clamp. In the main study, the study drug will instead be taken after finalization of the hypoglycemic clamp. Baseline blood samples will be obtained for glucose, glucagon, epinephrine, norepinephrine, growth hormone and cortisol. The clamp will then be initiated by an intravenous insulin infusion at a rate of 2 mU×kg^−1×min^−1. Glucose 100 mg/ml will then be administered in variable infusion rates to clamp the blood glucose concentration at 5.5 mmol/land then at 2.5 mmol/land kept stable for 30 min. Blood glucose will be evaluated repeatedly in order to find the optimal glucose infusion rate. Blood sampling to determined levels of counterregulatory hormones as described above will be performed at each of these target levels when a stable glucose concentration has been reached. The insulin infusion will thereafter be terminated and the patient is allowed to eat and will be observed until normoglycemia is achieved. If necessary, additional glucose administration will be given to allow blood glucose concentrations to normalize.
Only patients with c-peptide levels that were undetectable (in a standard assay, i.e. <0.01 nmol/L) are included (5 of 6) in the data below.
Plasma levels of glucagon, cortisol, epinephrine, growth hormone and glucose were measured at baseline (increased glucose in T1D subjects). Plasma glucose was first lowered to normoglycemic levels (5.5 mmol/L) and hormone levels monitored, and then to hypoglycemic levels (2.5 mmol/L) and hormone levels monitored. Difference was calculated as a measurement of the response to hypoglycemia.

glucagon = experiment: Hypoglycemic clamp: plasma glucagon levels; type: in vivo, human; conditions: for Glucagon levels, Change from baseline, Mean (SD) / Glucagon levels, Change from baseline, Median (Min, Max) / Glucagon levels, Observed value, Mean (SD) / Glucagon levels, Observed value, Median (Min, Max): C-peptide undetectable
Protocol: as §1, §2, §3, §4, §5
Plasma glucose was first lowered to normoglycemic levels (5.5 mmol/L) and hormone levels monitored, and then to hypoglycemic levels (2.5 mmol/L) and hormone levels monitored. Difference was calculated as a measurement of the response to hypoglycemia.

[1] = Visit 5, 200 mg GABA per day, Event 2.5 mmol/L
[2] = Visit 5, 200 mg GABA per day, Event 5.5 mmol/L
[3] = Visit 5, 200 mg GABA per day, Event Baseline
[4] = Visit 5, 200 mg GABA per day, Event Diff 2.5-5.5 mmol/L
[5] = Visit 7, 600 mg GABA per day, Event 2.5 mmol/L
[6] = Visit 7, 600 mg GABA per day, Event 5.5 mmol/L
[7] = Visit 7, 600 mg GABA per day, Event Baseline
[8] = Visit 7, 600 mg GABA per day, Event Diff 2.5-5.5 mmol/L
[9] = Visit 9, 1200 mg GABA per day, Event 2.5 mmol/L
[10] = Visit 9, 1200 mg GABA per day, Event 5.5 mmol/L
[11] = Visit 9, 1200 mg GABA per day, Event Baseline
[12] = Visit 9, 1200 mg GABA per day, Event Diff 2.5-5.5 mmol/L
[13] = change in levels when clamping to 2.5 mmol/L from 5.5 mmol/L

NCCCC(=O)O [GABA, Gamma-amino butyric acid]
Cortisol levels, Change from baseline, Mean (SD) (cortisol; [1]): 49.6 nmol/L | Cortisol levels, Change from baseline, Median (Min, Max) (cortisol; [1]): 40.0 nmol/L | Cortisol levels, Observed value, Mean (SD) (cortisol; [1]): 356.2 nmol/L | Cortisol levels, Observed value, Median (Min, Max) (cortisol; [1]): 334.0 nmol/L | Cortisol levels, Change from baseline, Mean (SD) (cortisol; [2]): -141.8 nmol/L | Cortisol levels, Change from baseline, Median (Min, Max) (cortisol; [2]): -179.0 nmol/L | Cortisol levels, Observed value, Mean (SD) (cortisol; [2]): 198.8 nmol/L | Cortisol levels, Observed value, Median (Min, Max) (cortisol; [2]): 176.0 nmol/L | Cortisol levels, Change from baseline, Mean (SD) (cortisol; [3]): -198.8 nmol/L | Cortisol levels, Change from baseline, Median (Min, Max) (cortisol; [3]): -196.0 nmol/L | Cortisol levels, Observed value, Mean (SD) (cortisol; [3]): 215.0 nmol/L | Cortisol levels, Observed value, Median (Min, Max) (cortisol; [3]): 213.0 nmol/L | Cortisol levels, Change from baseline, Mean (SD) (cortisol; [4]): 191.4 nmol/L | Cortisol levels, Change from baseline, Median (Min, Max) (cortisol; [4]): 125.0 nmol/L | Cortisol levels, Observed value, Mean (SD) (cortisol; [4]): 157.4 nmol/L | Cortisol levels, Observed value, Median (Min, Max) (cortisol; [4]): 162.0 nmol/L | Cortisol levels, Change from baseline, Mean (SD) (cortisol; [5]): 51.8 nmol/L | Cortisol levels, Change from baseline, Median (Min, Max) (cortisol; [5]): 36.0 nmol/L | Cortisol levels, Observed value, Mean (SD) (cortisol; [5]): 358.4 nmol/L | Cortisol levels, Observed value, Median (Min, Max) (cortisol; [5]): 360.0 nmol/L | Cortisol levels, Change from baseline, Mean (SD) (cortisol; [6]): -157.0 nmol/L | Cortisol levels, Change from baseline, Median (Min, Max) (cortisol; [6]): -185.0 nmol/L | Cortisol levels, Observed value, Mean (SD) (cortisol; [6]): 183.6 nmol/L | Cortisol levels, Observed value, Median (Min, Max) (cortisol; [6]): 166.0 nmol/L | Cortisol levels, Change from baseline, Mean (SD) (cortisol; [7]): -222.6 nmol/L | Cortisol levels, Change from baseline, Median (Min, Max) (cortisol; [7]): -217.0 nmol/L | Cortisol levels, Observed value, Mean (SD) (cortisol; [7]): 191.2 nmol/L | Cortisol levels, Observed value, Median (Min, Max) (cortisol; [7]): 189.0 nmol/L | Cortisol levels, Change from baseline, Mean (SD) (cortisol; [8]): 208.8 nmol/L | Cortisol levels, Change from baseline, Median (Min, Max) (cortisol; [8]): 141.0 nmol/L | Cortisol levels, Observed value, Mean (SD) (cortisol; [8]): 174.8 nmol/L | Cortisol levels, Observed value, Median (Min, Max) (cortisol; [8]): 194.0 nmol/L | Cortisol levels, Change from baseline, Mean (SD) (cortisol; [9]): 6.6 nmol/L | Cortisol levels, Change from baseline, Median (Min, Max) (cortisol; [9]): 29.0 nmol/L | Cortisol levels, Observed value, Mean (SD) (cortisol; [9]): 313.2 nmol/L | Cortisol levels, Observed value, Median (Min, Max) (cortisol; [9]): 285.0 nmol/L | Cortisol levels, Change from baseline, Mean (SD) (cortisol; [10]): -117.2 nmol/L | Cortisol levels, Change from baseline, Median (Min, Max) (cortisol; [10]): -115.0 nmol/L | Cortisol levels, Observed value, Mean (SD) (cortisol; [10]): 223.4 nmol/L | Cortisol levels, Observed value, Median (Min, Max) (cortisol; [10]): 193.0 nmol/L | Cortisol levels, Change from baseline, Mean (SD) (cortisol; [11]): -196.0 nmol/L | Cortisol levels, Change from baseline, Median (Min, Max) (cortisol; [11]): -191.0 nmol/L | Cortisol levels, Observed value, Mean (SD) (cortisol; [11]): 217.8 nmol/L | Cortisol levels, Observed value, Median (Min, Max) (cortisol; [11]): 226.0 nmol/L | Cortisol levels, Change from baseline, Mean (SD) (cortisol; [12]): 123.8 nmol/L | Cortisol levels, Change from baseline, Median (Min, Max) (cortisol; [12]): 83.0 nmol/L | Cortisol levels, Observed value, Mean (SD) (cortisol; [12]): 89.8 nmol/L | Cortisol levels, Observed value, Median (Min, Max) (cortisol; [12]): -10.0 nmol/L | Counter regulatory response of Cortisol, effect of GABA treatment (cortisol; [13]): increased | Normoglycemic levels of Cortisol, effect of GABA treatment (cortisol; clamped to 5.5 mmol/L): decrease | Baseline (no clamp) Cortisol levels, effect of GABA treatment (cortisol; dose escalation part, oral GABA, type 1 diabetes patients with undetectable c-peptide): downregulated; also recorded: decrease | Glucagon levels, Change from baseline, Mean (SD) (glucagon; [1]): 2.12 pmol/L | Glucagon levels, Change from baseline, Median (Min, Max) (glucagon; [1]): 1.60 pmol/L | Glucagon levels, Observed value, Mean (SD) (glucagon; [1]): 4.88 (2.44) pmol/L | Glucagon levels, Observed value, Median (Min, Max) (glucagon; [1]): 4.80 pmol/L | Glucagon levels, Change from baseline, Mean (SD) (glucagon; [2]): -0.11 pmol/L | Glucagon levels, Change from baseline, Median (Min, Max) (glucagon; [2]): 0.00 pmol/L | Glucagon levels, Observed value, Mean (SD) (glucagon; [2]): 2.08 (1.33) pmol/L | Glucagon levels, Observed value, Median (Min, Max) (glucagon; [2]): 2.20 pmol/L | Glucagon levels, Change from baseline, Mean (SD) (glucagon; [3]): 0.46 pmol/L | Glucagon levels, Change from baseline, Median (Min, Max) (glucagon; [3]): 0.60 pmol/L | Glucagon levels, Observed value, Mean (SD) (glucagon; [3]): 3.92 (1.03) pmol/L | Glucagon levels, Observed value, Median (Min, Max) (glucagon; [3]): 3.60 pmol/L | Glucagon levels, Change from baseline, Mean (SD) (glucagon; [4]): 2.23 pmol/L | Glucagon levels, Change from baseline, Median (Min, Max) (glucagon; [4]): 1.85 pmol/L | Glucagon levels, Observed value, Mean (SD) (glucagon; [4]): 2.80 (2.07) pmol/L | Glucagon levels, Observed value, Median (Min, Max) (glucagon; [4]): 2.60 pmol/L | Glucagon levels, Change from baseline, Mean (SD) (glucagon; [5]): 1.64 pmol/L | Glucagon levels, Change from baseline, Median (Min, Max) (glucagon; [5]): 1.40 pmol/L | Glucagon levels, Observed value, Median (Min, Max) (glucagon; [5]): 4.20 pmol/L | Glucagon levels, Change from baseline, Mean (SD) (glucagon; [6]): -0.66 pmol/L | Glucagon levels, Change from baseline, Median (Min, Max) (glucagon; [6]): -0.60 pmol/L | Glucagon levels, Observed value, Mean (SD) (glucagon; [6]): 1.53 (1.32) pmol/L | Glucagon levels, Observed value, Median (Min, Max) (glucagon; [6]): 0.75 pmol/L | Glucagon levels, Change from baseline, Mean (SD) (glucagon; [7]): -0.42 pmol/L | Glucagon levels, Change from baseline, Median (Min, Max) (glucagon; [7]): -0.70 pmol/L | Glucagon levels, Observed value, Mean (SD) (glucagon; [7]): 3.04 (0.66) pmol/L | Glucagon levels, Observed value, Median (Min, Max) (glucagon; [7]): 3.10 pmol/L | Glucagon levels, Change from baseline, Mean (SD) (glucagon; [8]): 2.30 pmol/L | Glucagon levels, Change from baseline, Median (Min, Max) (glucagon; [8]): 2.10 pmol/L | Glucagon levels, Observed value, Mean (SD) (glucagon; [8]): 2.87 (1.96) pmol/L | Glucagon levels, Observed value, Median (Min, Max) (glucagon; [8]): 2.95 pmol/L | Glucagon levels, Change from baseline, Mean (SD) (glucagon; [9]): 3.16 pmol/L | Glucagon levels, Change from baseline, Median (Min, Max) (glucagon; [9]): 3.30 pmol/L | Glucagon levels, Observed value, Mean (SD) (glucagon; [9]): 5.92 (3.70) pmol/L | Glucagon levels, Observed value, Median (Min, Max) (glucagon; [9]): 5.60 pmol/L | Glucagon levels, Change from baseline, Mean (SD) (glucagon; [10]): -0.58 pmol/L | Glucagon levels, Change from baseline, Median (Min, Max) (glucagon; [10]): -0.80 pmol/L | Glucagon levels, Observed value, Mean (SD) (glucagon; [10]): 1.61 (1.18) pmol/L | Glucagon levels, Observed value, Median (Min, Max) (glucagon; [10]): 0.75 pmol/L | Glucagon levels, Change from baseline, Mean (SD) (glucagon; [11]): 0.96 pmol/L | Glucagon levels, Change from baseline, Median (Min, Max) (glucagon; [11]): 0.50 pmol/L | Glucagon levels, Observed value, Median (Min, Max) (glucagon; [11]): 3.90 pmol/L | Glucagon levels, Change from baseline, Mean (SD) (glucagon; [12]): 3.74 pmol/L | Glucagon levels, Change from baseline, Median (Min, Max) (glucagon; [12]): 3.30 pmol/L | Glucagon levels, Observed value, Mean (SD) (glucagon; [12]): 4.31 (4.33) pmol/L | Glucagon levels, Observed value, Median (Min, Max) (glucagon; [12]): 2.60 pmol/L | Counter regulatory response of Glucagon, effect of GABA treatment (glucagon; [13]): increased | Normoglycemic levels of Glucagon, effect of GABA treatment (glucagon; clamped to 5.5 mmol/L): decrease | Circulating glucagon concentrations, effect of GABA (glucagon; type 1 diabetes individuals with pathologically increased glucagon): lower

— patent publication US20230210797A1, “PREVENTING AND TREATING HYPOGLYCEMIA” (DIAMYD MEDICAL AB, priority 2019, published 2023)
